In patent US9242987B2, “Heterocyclyl pyrazolopyrimidine analogues as JAK inhibitors” (Cellzome Limited, priority 2009, dated 2016) one finds IC50 data, which are given here for 25 compounds.

The target of one experiment is T1, JAK2 (Homo sapiens, UniProt O60674).
T1 construct: endogenous in cells; host or cells: Mixed Molt4/Ramos lysate (1:2)
Kind of experiment: Kinobeads assay, JAK2. The format is binding. The settings on record: mixed Molt4/Ramos cell lysate, dot blot detection. In a few lines:
(§1)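 Lysate from Molt4 and Ramos cells combined 1:2 at 10 mg/mL total protein met test compound and an aminopyrido-pyrimidine affinity matrix for 3 h in the cold. Captured JAK2 and JAK3, after elution, were measured by specific-antibody dot blot on an infrared system; dose-response curves yielded IC50.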

The target of the next experiment is T2, JAK3 (Homo sapiens, UniProt P52333).
T2 construct: endogenous in cells; host or cells: Mixed Molt4/Ramos lysate (1:2)
T2 sequence (P52333 1-1124): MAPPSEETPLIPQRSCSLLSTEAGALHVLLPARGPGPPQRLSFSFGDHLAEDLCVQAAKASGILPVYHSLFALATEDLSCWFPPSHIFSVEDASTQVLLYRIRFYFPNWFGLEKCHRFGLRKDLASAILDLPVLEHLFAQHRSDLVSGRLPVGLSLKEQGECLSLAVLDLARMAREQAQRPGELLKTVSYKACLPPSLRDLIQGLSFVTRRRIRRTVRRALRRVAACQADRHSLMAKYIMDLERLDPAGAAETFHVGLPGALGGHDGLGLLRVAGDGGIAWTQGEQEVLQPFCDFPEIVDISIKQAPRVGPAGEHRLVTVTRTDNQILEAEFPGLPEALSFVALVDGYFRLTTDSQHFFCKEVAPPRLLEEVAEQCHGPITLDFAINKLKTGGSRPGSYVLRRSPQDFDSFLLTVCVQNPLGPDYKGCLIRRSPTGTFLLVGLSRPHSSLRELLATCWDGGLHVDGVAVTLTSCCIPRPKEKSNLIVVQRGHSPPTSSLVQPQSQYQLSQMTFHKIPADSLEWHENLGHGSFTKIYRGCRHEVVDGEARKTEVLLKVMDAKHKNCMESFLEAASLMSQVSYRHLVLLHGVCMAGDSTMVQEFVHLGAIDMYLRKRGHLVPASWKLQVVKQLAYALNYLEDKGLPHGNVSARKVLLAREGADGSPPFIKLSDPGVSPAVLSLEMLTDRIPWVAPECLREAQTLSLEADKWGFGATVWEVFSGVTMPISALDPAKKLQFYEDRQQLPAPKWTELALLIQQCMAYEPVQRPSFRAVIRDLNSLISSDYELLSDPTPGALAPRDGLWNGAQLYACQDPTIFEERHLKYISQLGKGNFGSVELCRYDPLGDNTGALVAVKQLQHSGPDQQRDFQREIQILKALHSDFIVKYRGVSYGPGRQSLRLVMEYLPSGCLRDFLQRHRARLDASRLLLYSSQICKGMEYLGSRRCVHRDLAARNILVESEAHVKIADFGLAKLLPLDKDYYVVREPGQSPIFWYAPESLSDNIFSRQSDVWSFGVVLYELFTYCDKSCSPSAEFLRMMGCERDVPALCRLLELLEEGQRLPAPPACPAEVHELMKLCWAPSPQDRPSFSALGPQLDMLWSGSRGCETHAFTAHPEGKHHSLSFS
The experiment in a line: Kinobeads assay, JAK3. It is filed as binding. The following applies: mixed Molt4/Ramos cell lysate, dot blot detection. A digest of the protocol: as §1

Where only a bound is given, the exact number is not on record here.

T1 sequence (O60674 whole entry): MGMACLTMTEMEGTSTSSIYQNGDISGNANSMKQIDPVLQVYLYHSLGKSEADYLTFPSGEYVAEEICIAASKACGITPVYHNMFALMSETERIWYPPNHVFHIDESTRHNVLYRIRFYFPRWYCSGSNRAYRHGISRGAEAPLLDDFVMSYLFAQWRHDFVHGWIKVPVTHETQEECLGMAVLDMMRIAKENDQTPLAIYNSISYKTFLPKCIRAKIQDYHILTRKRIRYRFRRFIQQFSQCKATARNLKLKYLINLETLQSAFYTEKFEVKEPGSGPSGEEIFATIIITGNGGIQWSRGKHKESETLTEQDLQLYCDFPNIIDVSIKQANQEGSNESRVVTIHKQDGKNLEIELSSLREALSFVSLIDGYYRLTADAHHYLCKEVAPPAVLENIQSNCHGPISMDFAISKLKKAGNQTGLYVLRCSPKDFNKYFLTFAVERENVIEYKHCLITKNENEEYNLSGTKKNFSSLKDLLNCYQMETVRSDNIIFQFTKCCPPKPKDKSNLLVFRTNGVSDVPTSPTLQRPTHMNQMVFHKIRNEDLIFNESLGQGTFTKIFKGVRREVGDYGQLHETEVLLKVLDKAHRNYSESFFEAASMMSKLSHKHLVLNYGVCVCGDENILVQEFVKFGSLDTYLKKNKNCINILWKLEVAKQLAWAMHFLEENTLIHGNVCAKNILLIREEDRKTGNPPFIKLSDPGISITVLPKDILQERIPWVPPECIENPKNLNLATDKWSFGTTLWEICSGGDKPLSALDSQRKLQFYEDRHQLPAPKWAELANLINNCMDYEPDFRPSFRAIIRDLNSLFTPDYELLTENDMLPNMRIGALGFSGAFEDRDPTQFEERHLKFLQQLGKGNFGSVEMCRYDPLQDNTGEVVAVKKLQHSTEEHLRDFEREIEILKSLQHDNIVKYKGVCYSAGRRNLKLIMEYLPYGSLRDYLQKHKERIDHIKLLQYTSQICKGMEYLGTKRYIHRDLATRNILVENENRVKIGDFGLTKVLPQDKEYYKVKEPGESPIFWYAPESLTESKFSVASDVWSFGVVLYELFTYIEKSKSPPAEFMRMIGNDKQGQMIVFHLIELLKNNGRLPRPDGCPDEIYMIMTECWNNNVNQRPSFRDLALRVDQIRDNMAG

The IC50 is the point on the concentration scale where inhibition reaches its midpoint. The low end stands for inhibition by little substance, the high end for a need for much substance. `Cn1cc(Nc2ncc3cnn(Cc4cc(F)ccc4C(N)=O)c3n2)cn1` [Example 53, 4-Fluoro-2-((6-(1-methyl-1H-pyrazol-4-ylamino)-1H-pyrazolo[3,4-d]pyrimidin-1-yl)methyl)benzamide]: the IC50 against JAK2 and on JAK3 was under 0.1 µM throughout.
As for `Cn1cc(Nc2ncc3cnn(-c4ccc(NS(C)(=O)=O)cn4)c3n2)cn1` [Example 54, N-(6-(6-(1-Methyl-1H-pyrazol-4-ylamino)-1H-pyrazolo[3,4-d]pyrimidin-1-yl)pyridin-3-yl)methanesulfonamide], the IC50 against JAK2 fell in the range of 1 to 10 µM; against JAK3 it was 0.1 to 1 µM.
On to `Cc1nc(-n2ncc3cnc(Nc4cnn(C)c4)nc32)ccc1NS(C)(=O)=O` [Example 55, N-(2-Methyl-6-(6-(1-methyl-1H-pyrazol-4-ylamino)-1H-pyrazolo[3,4-d]pyrimidin-1-yl)pyridin-3-yl)methanesulfonamide], for which the IC50 lay within 1 to 10 µM on JAK2 and 0.1 to 1 µM on JAK3.
With `Cn1cc(Nc2ncc3cnn(-c4ccc(F)cc4)c3n2)cn1` [Example 56, 1-(4-Fluorophenyl)-N-(1-methyl-1H-pyrazol-4-yl)-1H-pyrazolo[3,4-d]pyrimidin-6-amine], the results for the IC50 against JAK2 and at JAK3 were 1 to 10 µM and 0.1 to 1 µM, respectively.
As to `Cn1cc(Nc2ncc3cnn(-c4ccc(Cl)cc4)c3n2)cn1` [Example 57, 1-(4-Chlorophenyl)-N-(1-methyl-1H-pyrazol-4-yl)-1H-pyrazolo[3,4-d]pyrimidin-6-amine], the IC50 is at least 10 µM on JAK2 and 0.1 to 1 µM at JAK3.
Turning to `COc1cc(-n2ncc3cnc(Nc4cnn(C)c4)nc32)ccc1F` [Example 58, 1-(4-Fluoro-3-methoxyphenyl)-N-(1-methyl-1H-pyrazol-4-yl)-1H-pyrazolo[3,4-d]pyrimidin-6-amine], the 50% inhibitory concentration (IC50) was at least 10 µM on JAK2 and 0.1 to 1 µM on JAK3.
As to `Cc1cc(-n2ncc3cnc(Nc4cnn(C)c4)nc32)ccc1F` [Example 60, 1-(4-fluoro-3-methylphenyl)-N-(1-methyl-1H-pyrazol-4-yl)-1H-pyrazolo[3,4-d]pyrimidin-6-amine], the IC50 at JAK2 lay in the range of 1 to 10 µM; against JAK3, 0.1 to 1 µM.
On to `Cn1cc(Nc2ncc3cnn(-c4ccc(S(C)(=O)=O)cc4)c3n2)cn1` [Example 61, N-(1-methyl-1H-pyrazol-4-yl)-1-(4-(methylsulfonyl)phenyl)-1H-pyrazolo[3,4-d]pyrimidin-6-amine], for which the values for the IC50 at JAK2 and at JAK3 were 1 to 10 µM and 0.1 to 1 µM, respectively.
In the case of `Cn1cc(Nc2ncc3cnn(Cc4cc(F)ccc4Cl)c3n2)cn1` [Example 62, 1-(2-Chloro-5-fluorobenzyl)-N-(1-methyl-1H-pyrazol-4-yl)-1H-pyrazolo[3,4-d]pyrimidin-6-amine], the IC50 against JAK2 and against JAK3 was under 0.1 µM throughout.
For `Cn1cc(Nc2ncc3cnn(Cc4c(F)cccc4Cl)c3n2)cn1` [Example 63, 1-(2-Chloro-6-fluorobenzyl)-N-(1-methyl-1H-pyrazol-4-yl)-1H-pyrazolo[3,4-d]pyrimidin-6-amine], the IC50 was 0.1 to 1 µM on JAK2 and under 0.1 µM at JAK3.
Take `Cn1cc(Nc2ncc3cnn(Cc4cc(Cl)ccc4F)c3n2)cn1` [Example 64]: the figures for the IC50 at JAK2 and at JAK3 were 0.1 to 1 µM and under 0.1 µM, respectively.
As to `Cn1cc(Nc2ncc3cnn(Cc4ccccc4C(F)(F)F)c3n2)cn1` [Example 65, N-(1-Methyl-1H-pyrazol-4-yl)-1-(2-(trifluoromethyl)benzyl)-1H-pyrazolo[3,4-d]pyrimidin-6-amine], the IC50 is 1 to 10 µM at JAK2 and under 0.1 µM against JAK3.
In the case of `Cn1cc(Nc2ncc3cnn(Cc4cccc(C(F)(F)F)c4)c3n2)cn1` [Example 66, N-(1-Methyl-1H-pyrazol-4-yl)-1-(3-(trifluoromethyl)benzyl)-1H-pyrazolo[3,4-d]pyrimidin-6-amine], the half-inhibitory concentration (IC50) at JAK2 was at least 10 µM; against JAK3, 0.1 to 1 µM.
Turning to `Cn1cc(Nc2ncc3cnn(Cc4cccc(F)c4)c3n2)cn1` [Example 67, 1-(3-Fluorobenzyl)-N-(1-methyl-1H-pyrazol-4-yl)-1H-pyrazolo[3,4-d]pyrimidin-6-amine], the IC50 at JAK2 was 0.1 to 1 µM; at JAK3, under 0.1 µM.
In the case of `Cn1cc(Nc2ncc3cnn(Cc4cccc(C#N)c4)c3n2)cn1` [Example 68, 3-((6-((1-Methyl-1H-pyrazol-4-yl)amino)-1H-pyrazolo[3,4-d]pyrimidin-1-yl)methyl)benzonitrile], the IC50 at JAK2 is 1 to 10 µM; at JAK3, under 0.1 µM.
Consider `COc1cccc(Cn2ncc3cnc(Nc4cnn(C)c4)nc32)c1` [Example 69, 1-(3-Methoxybenzyl)-N-(1-methyl-1H-pyrazol-4-yl)-1H-pyrazolo[3,4-d]pyrimidin-6-amine], for which the IC50 was 1 to 10 µM at JAK2 and under 0.1 µM on JAK3.
Take `Cn1cc(Nc2ncc3cnn(Cc4cccc(Cl)c4)c3n2)cn1` [Example 70, 1-(3-Chlorobenzyl)-N-(1-methyl-1H-pyrazol-4-yl)-1H-pyrazolo[3,4-d]pyrimidin-6-amine]: the IC50 at JAK2 is 0.1 to 1 µM; against JAK3, under 0.1 µM.
In the case of `COc1nn(CC(F)F)cc1Nc1ncc2cnn(-c3ccc(S(N)(=O)=O)cc3)c2n1` [Example 71, 4-(6-((1-(2,2-Difluoroethyl)-3-methoxy-1H-pyrazol-4-yl)amino)-1H-pyrazolo[3,4-d]pyrimidin-1-yl)benzenesulfonamide], the IC50 was at least 10 µM at JAK2 and 0.1 to 1 µM on JAK3.
Turning to `Cn1cc(Nc2ncc3cnn(Cc4cccc(Cl)c4F)c3n2)cn1` [Example 72, 1-(3-Chloro-2-fluorobenzyl)-N-(1-methyl-1H-pyrazol-4-yl)-1H-pyrazolo[3,4-d]pyrimidin-6-amine], the results for the IC50 at JAK2 and at JAK3 were 1 to 10 µM and under 0.1 µM, respectively.
For `OCCn1cc(Nc2ncc3cnn(Cc4c(F)cccc4F)c3n2)cn1` [Example 73, 2-(4-((1-(2,6-Difluorobenzyl)-1H-pyrazolo[3,4-d]pyrimidin-6-yl)amino)-1H-pyrazol-1-yl)ethanol], the values for the IC50 on JAK2 and against JAK3 were 0.1 to 1 µM and under 0.1 µM, respectively.
For `Cn1cc(Nc2ncc3cnn(-c4ccccc4)c3n2)cn1` [Example 74, N-(1-Methyl-1H-pyrazol-4-yl)-1-phenyl-1H-pyrazolo[3,4-d]pyrimidin-6-amine], the IC50 lay within 1 to 10 µM on JAK2 and 0.1 to 1 µM at JAK3.
In the same order, the values of `Cn1cc(Nc2ncc3cnn(Cc4ccccc4NS(C)(=O)=O)c3n2)cn1` [Example 75, N-(2-((6-((1-Methyl-1H-pyrazol-4-yl)amino)-1H-pyrazolo[3,4-d]pyrimidin-1-yl)methyl)phenyl)methanesulfonamide] are 0.1 to 1 µM and under 0.1 µM.
For `Cn1cc(Nc2ncc3cnn(Cc4ccccc4)c3n2)cn1` [Example 76, 1-Benzyl-N-(1-methyl-1H-pyrazol-4-yl)-1H-pyrazolo[3,4-d]pyrimidin-6-amine], the IC50 at JAK2 was 1 to 10 µM; at JAK3, under 0.1 µM.
Regarding `Cn1cc(Nc2ncc3cnn(CCc4ccccc4F)c3n2)cn1` [Example 77, 1-(2-Fluorophenethyl)-N-(1-methyl-1H-pyrazol-4-yl)-1H-pyrazolo[3,4-d]pyrimidin-6-amine], the IC50 against JAK2 was at least 10 µM; against JAK3, 0.1 to 1 µM.
Taken in the same sequence, the figures for `Cn1cc(Nc2ncc3cnn(Cc4ccc(F)c(F)c4)c3n2)cn1` [Example 78, 1-(3,4-Difluorobenzyl)-N-(1-methyl-1H-pyrazol-4-yl)-1H-pyrazolo[3,4-d]pyrimidin-6-amine] were 1 to 10 µM and 0.1 to 1 µM.
